Patent US20230391776A1, “AMIDE OXAZOLE COMPOUND” (MEDSHINE DISCOVERY INC., priority 2020, published 2023)

Tested on: TNF-α secretion induced by LPS
Test: TNF-α secretion model induced by LPS in SD rats
Format: in vivo
Details: 25 mpk oral gavage 0.5 h before 1 mg/kg LPS i.p., plasma 2 hours after modeling, p<0.01
Experimental: a) The pharmacokinetic effect of compound WX009 on TNF-α secretion model induced by LPS in SD rats.
Female SD rats were randomly divided into four groups according to the animal weight, namely Sham group, Model group and Dexamethasone (dosage: 0.5 mpk, DEX-0.5 mpk) group and tested drug WX009 (dosage: 25 mpk, WX009-25 mpk) group, with 6-9 animals in each group. The model was established by a single intraperitoneal injection of 1 mg/kg LPS. Dexamethasone and tested drug were given orally by gavage 0.5 h before modeling. After modeling for 2 hours, the animals were weighed, and all the experimental animals were anesthetized by intraperitoneal injection of pentobarbital sodium. An anticoagulant whole blood was collected through sublingual vein, anticoagulant: EDTA-K2, the plasma was separated, and the plasma volume was about 200 μL, which was used to detect the content of inflammatory factor, TNF-α.

## Cc1cc(-c2nc(C(=O)Nc3cn4cc(C(C)(C)O)nc4cc3-c3ccccc3)co2)ccn1 [WX009]
  TNF-α content in animal plasma compared with the Model group: significantly reduce
